One series relates to MCF-7. Briefly: Cytotoxicity assay (CellTiter 96 AQueous One) in MCF-7. The note with it: Homo sapiens, MCF7; MCF-7 (HER2 -); 72 h; CPT-containing items based on CPT content. The series is classed as cell-based. The text has this:
(§1) Wells containing untreated cells were used as controls.

The test system of the next series is SKBR-3. Put plainly: Cytotoxicity assay (CellTiter 96 AQueous One) in SKBR-3. The class given is cell-based. The note with it: Homo sapiens, SK-BR-3; SKBR-3 (HER2 +); 72 h; CPT-containing items based on CPT content.
Text: as §1

Series [1] is described as follows: Plasma pharmacokinetics of free CPT in CD2F1 mice (comparison). The method, then: A DNA ladder is loaded in Lane 1. […] A DNA ladder is loaded in Lane 1. […] Free CPT injected at 10 mg/kg into CD2F1 mice is shown as comparison. (A) Plasma concentration of polymer bound CPT as a function of time. […] (A) Percent injected dose (ID) of total CPT per gram of tumor, heart, liver, spleen, kidney or lung. (B) Percentage of total CPT in each organ that is unconjugated in tumor, heart, liver, spleen, kidney and lung. (C) Total concentration of CPT in plasma.

For a further series, the system named is BT-474 xenograft tumors. The method, then: Treatments began on day 1. […] All treatments were freshly prepared and given via intravenous tail vein injection. Injections were standardized at 150 µl per 20 g body weight of mice. […] Tumor sizes were recorded three times a week using caliper measurements (length x width^2/2) and health of the animals was continuously monitored. Animals were euthanized when tumor volumes exceeded 1000 mm^3. Six weeks after beginning of the treatment, animals were euthanized by CO2 asphyxiation.

A further series deals with BT-474. Briefly: Cytotoxicity assay (CellTiter 96 AQueous One) in BT-474. The note with it: Homo sapiens; BT-474 (HER2 +); 72 h; CPT-containing items based on CPT content. The class given is cell-based.
Text: as §1

A further series relates to MDA-MB-231. Put plainly: Cytotoxicity assay (CellTiter 96 AQueous One) in MDA-MB-231. The series is classed as cell-based. The note with it: Homo sapiens; MDA-MB-231 (HER2 -); 72 h; CPT-containing items based on CPT content.
Text: as §1

The nature of series [2]: pKa determination by absorbance change on titration. The note with it: 10^-3 M PBA in 0.1 M PBS, titrated with 1 N NaOH, absorbance at 268 nm. The class given is physicochemical. The procedure: The pKa of the synthesized PBA compounds were found by measuring the change in absorbance of PBA as it converted from trigonal (in low pH) to tetrahedral (in high pH) conformation. To a solution of 10^-3 M PBA in 0.1 M PBS, pH 7.4 was titrated 1 N NaOH. pH was recorded and corresponding samples were removed for absorbance measurements at 268 nm. Table 2. pKa and binding constants of PBA compounds
pKa values of the modified PBAs were determined by absorbance changes due to conformational change of PBA from trigonal to tetrahedral form as the pH was increased (Table 2). […] Thus, at physiological pH, most of the PBA was present in the reactive anionic tetrahedral form. Binding constants between PBA and MAP were found by competitive binding with Alizarin Red S in 0.1 M PBS, pH 7.4.

Where [3] appears, read: 8 mg/kg (MAP-CPT on CPT basis) i.v. once per week for 3 weeks.
Setting [4] is: 80 mg/kg i.v. once per week for 3 weeks.

Data on three compounds can be found in patent EP2961395B1, “TARGETED NANOPARTICLES” (CALIFORNIA INSTITUTE OF TECHNOLOGY, priority 2013, dated 2014).

Read-outs that look alike come from different tables or passages of the source.

In general, IC50 refers to the midpoint of a concentration-inhibition curve. By AUC is commonly meant concentration integrated over time. Low readings indicate less exposure, high ones more exposure. A word on the pKa: it is the pH at which an ionisable group is half protonated.

With `CC[C@@]1(O)C(=O)OCc2c1cc1n(c2=O)Cc2cc3ccccc3nc2-1` [CPT, Camptothecin], in the series with MCF-7, half-maximal inhibition (IC50) required 300 nM. The IC50 with SKBR-3 was determined as 30 nM. Moreover, in series [1] (CD2F1, mouse, in vivo, 10 mg/kg), the AUC was 1600 ng·h/mL. In addition, the “injected dose remaining in circulation” value in series [1] (after 8 h, CPT alone at 10 mg/kg) is given as 0.01%. Further, in the series with BT-474 xenograft tumors (setting [3]), the Mean tumor volume is 808 mm^3, the Median tumor volume stood at 417 mm^3, the “NTRD (number of treatment related death)” value came out at 4 and the “Nend (number of animals surviving to end of study)” value is 8/0. In the series with BT-474 xenograft tumors (setting [3]), the “Neuthan (number of animals euthanized due to exceeding tumor size limit of 1000 mm^3)” value turned out to be 4, the “Nreg to zero (number of animals with tumors regressed to zero at the end of study)” value is 0 and the “tumor inhibition compared to control group” value was “no tumor inhibition”. The IC50 in the series on BT-474 is 4000 nM. In addition, the IC50 in the series on MDA-MB-231 came to 100 nM.

As to `CCc1c2c(nc3ccc(OC(=O)N4CCC(N5CCCCC5)CC4)cc13)-c1cc3c(c(=O)n1C2)COC(=O)[C@]3(O)CC` [Irinotecan], in the series on BT-474 xenograft tumors (setting [4]), the “NTRD (number of treatment related death)” value came to 1, the “Nend (number of animals surviving to end of study)” value was 8/7, the “Neuthan (number of animals euthanized due to exceeding tumor size limit of 1000 mm^3)” value came out at 0 and the “Nreg to zero (number of animals with tumors regressed to zero at the end of study)” value is 0. For the same compound, in the series with BT-474 xenograft tumors (setting [4]), the “tumor inhibition compared to control group” value is on record as “non-significant tumor inhibition”.

In the case of `OB(O)c1ccccc1` [PBA, phenylboronic acid], in series [2], the pKa amounted to 8.8.
